Reference: patent US20100291236A1, “OSMIUM COMPOUNDS” (THE UNIVERSITY OF WARWICK, priority 2006, published 2010)
Entries after “also recorded” stand apart in the source; their conditions may differ. Like-named read-outs stand apart in the source and are kept apart here.

Columns and labels:
[1] = Acidity (pKa / pKa*) of coordinated water, 1H NMR pH* titration; details: aqua adduct
Description: pKa* calculations. […] The chemical shifts of the arene ring protons were plotted against pH*. The pH* titration curves were fitted to the Henderson-Hasselbalch equation, with the assumption that the observed chemical shifts are weighted averages according to the populations of the protonated and deprotonated species.

[2] = test system: human ovarian A2780 cancer cells; assay: Cytotoxicity towards A2780 cells, sulforhodamine B (SRB) assay; format: cell-based
Procedure: (§1) Experimental: Cytotoxicity Towards A2780 and A549 Human Cancer Cells. After plating, human ovarian A2780 cancer cells were treated with Os^II complexes on day 3, and human lung A549 cancer cells on day 2, at concentrations ranging from 2 μM to 50 μM. Solutions of the Os^II complexes were made up in 0.125% DMSO to assist dissolution. Cells were exposed to the complexes for 24 h, washed, supplied with fresh medium, allowed to grow for three doubling times (72 h), and then the protein content measured (proportional to cell survival) using the sulforhodamine B (SRB) assay.
(§2) Cancer Cell Cytotoxicity. After plating, human ovarian A2780 cancer cells were treated with OsII complexes on day 3, and human lung A549 cancer cells on day 2, at concentrations ranging from 0.1 μM to 100 μM. Solutions of the OsII complexes were made up in 0.125% DMSO to assist dissolution. Cells were exposed to the complexes for 24 h, washed, supplied with fresh medium, allowed to grow for three doubling times (72 h), and then the protein content measured (proportional to cell survival) using the sulforhodamine B (SRB) assay.10

[3] = test system: human lung A549 cancer cells; assay: Cytotoxicity towards A549 cells, sulforhodamine B (SRB) assay; format: cell-based
Procedure: as §1, §2

[4] = Hydrolysis (aquation) kinetics followed by 1H NMR; format: physicochemical
Procedure: Hydrolysis. […] The rate of hydrolysis was determined by fitting plots of concentrations (determined by ^1H NMR peak integrals) versus time to a pseudo first-order equation using ORIGIN version 5.0 (Microcal Software Ltd.).

[5] = test system: 9-ethyl guanine (9EtG); assay: Reaction with nucleobase model 9-ethyl guanine, 1H NMR; format: binding; details: pH* close to 7.4, 298 K
Procedure: (§3) Since DNA is believed to be the main target for metal anticancer drugs, nucleobase binding reactions of compounds 3-6, with nucleobase models, 9-ethyl guanine (9EtG) and 9-ethyl adenine (9EtA), were investigated.
(§4) Solutions of 3-6 (1 mM) (present as an equilibrium between 3-6 and their respective aqua adducts as the major species) with 1 mol equivalent of 9EtG (Table 14) or 9EtA (Table 15) in D2O were prepared and ^1H NMR spectra were taken at different time intervals.
(§5) Interactions with Nucleobases. The reaction of compounds 8-12 with nucleobases typically involved addition of a solution containing 1 mol equiv of nucleobase in D2O, to an equilibrium solution of compounds 8-12 in D2O (>90% aqua). The pH* value of the sample was adjusted if necessary so as to remain close to 7.4 (physiological). ^1H NMR spectra of these solutions were recorded at 298 K after various time intervals.

[6] = test system: 9-ethyl adenine (9EtA); assay: Reaction with nucleobase model 9-ethyl adenine, 1H NMR; format: binding; details: pH* close to 7.4, 298 K
Procedure: as §3, §4, §5

[7] = Table 7, 24 h exposure, 72 h growth, 2-50 μM, read-out: IC50/μM A2780
[8] = Table 7, 24 h exposure, 72 h growth, 2-50 μM, read-out: IC50/μM A549
[9] = Table 19, read-out: IC50 (μM) in A2780
[10] = Table 8, compounds 1-6, read-out: A2780 IC50
[11] = Table 8, compounds 1-6, read-out: A549 IC50

CC(=O)C=C(C)[O][Os][Cl].Cc1ccc(C(C)C)cc1 [AFAP29]
pKa of water coordinated on hydrolysis (aqua adduct of complex) [1]: 7.63 | IC50 [2, 7]: > 100 µM | IC50 [3, 8]: > 100 µM

C1=CCC2=C(C1)Cc1ccccc1C2.F[B-](F)(F)F.NCCN.[Cl][Os+] [AFAP65, [(η^6-THA)Os(en)Cl]BF4]
pKa of water coordinated on hydrolysis (aqua adduct of complex) [1]: 6.33 | IC50 [2, 7]: 9.4 µM | IC50 [3, 8]: 6.4 µM

[NH2][Pt]([NH2])([Cl])[Cl] [CDDP, cisplatin, reference compound]
IC50 [2, 9]: ~0.5 µM

O=C([O][Os][Cl])c1cccc(Br)n1.c1ccc(-c2ccccc2)cc1 [Compound 1, [(η^6-bip)Os(6-Br-pico)Cl]]
IC50 [2, 10]: > 50 µM | Hydrolysis k/h^−1 ([4]; 298 K, 5% MeOD-d4/95% D2O, pH* 2): 0.345 ± 0.0002 h⁻¹ | IC50 [3, 11]: > 50 µM

O=C([O][Os][Cl])c1cccc(O)n1.c1ccc(-c2ccccc2)cc1 [Compound 2, [(η^6-bip)Os(6-OH-pico)Cl]]
IC50 [2, 10]: > 50 µM | IC50 [3, 11]: > 50 µM

Cc1cc(C)c(NC(=O)c2ccccn2)c(C)c1.Cc1ccc(C(C)C)cc1.F[P-](F)(F)(F)(F)F.[Cl][Os+] [Compound 9, [(η^6-p-cym)Os(N-2,4,6-trimethyl-Ph-picolinamide)Cl]PF6]
+1 eq. 9-EtG (% adduct formation) ([5]; t = 0.17 h): 0% | +1 eq. 9-EtG (% adduct formation) ([5]; t = 24 h): 0% | Activity in A2780 cancer cell line [2]: inactive | IC50 [2, 9]: > 50 µM | Rate of hydrolysis [4]: very slowly | Hydrolysis k/h^−1 ([4]; Table 18, 310 K, 0.8 mM): 0.16 ± 0.01 h⁻¹ | +1 eq. 9-EtA (% adduct formation) ([6]; t = 0.17 h): 0% | +1 eq. 9-EtA (% adduct formation) ([6]; t = 24 h): 0%

O=C(c1ccccn1)[N]([Os][Cl])c1ccccc1.c1ccc(-c2ccccc2)cc1 [Compound 10, [(η^6-bip)Os(N-Ph-picolinamide)Cl]PF6]
+1 eq. 9-EtG (% adduct formation) ([5]; t = 0.17 h): 73% | +1 eq. 9-EtG (% adduct formation) ([5]; t = 24 h): 73% | Hydrolysis k/h^−1 ([4]; Table 18, 288 K, 0.8 mM): ≧5.9 h^−1 | +1 eq. 9-EtA (% adduct formation) ([6]; t = 0.17 h): 0% | +1 eq. 9-EtA (% adduct formation) ([6]; t = 24 h): 0%

Cc1ccc(C(C)C)cc1.O=C1c2cccc[n+]2[Os-]([Cl])[N]1c1ccccc1[N+](=O)[O-] [Compound 11]
+1 eq. 9-EtG (% adduct formation) ([5]; t = 0.17 h): 69% | +1 eq. 9-EtG (% adduct formation) ([5]; t = 24 h): 69% | Hydrolysis k/h^−1 ([4]; Table 18, 288 K, 0.8 mM): ≧5.9 h^−1 | +1 eq. 9-EtA (% adduct formation) ([6]; t = 0.17 h): 0% | +1 eq. 9-EtA (% adduct formation) ([6]; t = 24 h): 0%

C1=CCC2=C(C1)Cc1ccccc1C2.F[P-](F)(F)(F)(F)F.NCCN.[Cl][Ru+] [HC11, reference compound]
pKa of water coordinated on hydrolysis (aqua adduct of complex) [1]: 8.01 | IC50 [2, 7]: 0.5 µM | IC50 [3, 8]: 0.5 µM

CC(=O)C=C(C)[O][Ru][Cl].Cc1ccc(C(C)C)cc1 [MMS6, reference compound]
pKa of water coordinated on hydrolysis (aqua adduct of complex) [1]: 9.4 | IC50 [2, 7]: 19 µM | IC50 [3, 8]: > 100 µM

Cc1ccc(C(C)C)cc1.NCC(=O)[O][Ru][Cl] [RF01, reference compound]
pKa of water coordinated on hydrolysis (aqua adduct of complex) [1]: 8.65 | IC50 [2, 7]: > 100 µM

CC(N)C(=O)[O][Ru][Cl].Cc1ccc(C(C)C)cc1 [RF02(a), reference compound]
IC50 [2, 7]: > 100 µM

Cc1ccc(C(C)C)cc1.NCCC(=O)[O][Ru][Cl] [RF11, reference compound]
IC50 [2, 7]: > 100 µM

O=C([O][Ru][Cl])C1CCCCN1.c1ccc(-c2ccccc2)cc1 [RF16, reference compound]
IC50 [2, 7]: > 100 µM

[(η^6-p-cym)Os(N-2,4-difluoride-Ph-picolinamide)Cl]PF6 [Compound 8]
+1 eq. 9-EtG (% adduct formation) ([5]; t = 0.17 h): 56% | +1 eq. 9-EtG (% adduct formation) ([5]; t = 24 h): 56% | Activity in A2780 cancer cell line [2]: cytotoxic; also recorded: active | IC50 [2, 9]: 8.2 µM | Hydrolysis k/h^−1 ([4]; Table 18, 288 K, 0.8 mM): ≧5.9 h^−1 | Activity in A549 cancer cell line [3]: moderately cytotoxic | IC50 ([3]; Example 6, read-out: IC50 in human lung A549 cancer cell line): 10 to 50 µM | +1 eq. 9-EtA (% adduct formation) ([6]; t = 0.17 h): 0% | +1 eq. 9-EtA (% adduct formation) ([6]; t = 24 h): 0%

[(η^6-p-cym)Os(O2C6H3CH3NCH3)Cl] [AFAP57]
pKa of water coordinated on hydrolysis (aqua adduct of complex) [1]: 8.31 | IC50 [2, 7]: 40 µM | IC50 [3, 8]: > 100 µM
